Like-named read-outs stand apart in the source and are kept apart here.
Experiments:
Test in all cases: Glasshouse assay for herbicidal activity (pre- and post-emergence), percentage phytotoxicity
Format in all cases: in vivo
[1] = system: Alopecurus myosuroides (ALOMY); conditions: Alopecurus myosuroides, 250 g/ha, visual assessment (100%=total damage, 0%=no damage)
In short: (§1)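 Seeds were sown in standard soil in pots and grown one day (pre-emergence) or about 12 days (post-emergence) before herbicide application. Plants were kept at 24/18 °C (warm-climate) or 20/16 °C (cool-climate) day/night, 16 h light, 65% humidity, watered twice daily, and damage was scored visually at 15 DAA (POST) or 20 DAA (PRE).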

Avena fatua (AVEFA) = conditions: Avena fatua, 250 g/ha, visual assessment (100%=total damage, 0%=no damage)
In short: as §1

[2] = system: Echinochloa crus-galli (ECHCG); conditions: Echinochloa crus-galli, 250 g/ha, visual assessment (100%=total damage, 0%=no damage)
In short: as §1

Lolium perenne (LOLPE) = conditions: Lolium perenne, 250 g/ha, visual assessment (100%=total damage, 0%=no damage)
In short: as §1

[3] = post-emergence, 360 h, post-emergence, 15 DAA, read-out: Post-emergence herbicidal activity (percentage phytotoxicity) ALOMY POST
[4] = pre-emergence, 480 h, pre-emergence, 20 DAA, read-out: Pre-emergence herbicidal activity (percentage phytotoxicity) ALOMY PRE
[5] = post-emergence, 360 h, post-emergence, 15 DAA, read-out: Post-emergence herbicidal activity (percentage phytotoxicity) AVEFA POST
[6] = pre-emergence, 480 h, pre-emergence, 20 DAA, read-out: Pre-emergence herbicidal activity (percentage phytotoxicity) AVEFA PRE
[7] = post-emergence, 360 h, post-emergence, 15 DAA, read-out: Post-emergence herbicidal activity (percentage phytotoxicity) ECHCG POST
[8] = pre-emergence, 480 h, pre-emergence, 20 DAA, read-out: Pre-emergence herbicidal activity (percentage phytotoxicity) ECHCG PRE
[9] = post-emergence, 360 h, post-emergence, 15 DAA, read-out: Post-emergence herbicidal activity (percentage phytotoxicity) LOLPE POST
[10] = pre-emergence, 480 h, pre-emergence, 20 DAA, read-out: Pre-emergence herbicidal activity (percentage phytotoxicity) LOLPE PRE

Compound	pest or weed control at 250 g/ha [1, 3] [%]	pest or weed control at 250 g/ha [1, 4] [%]	pest or weed control at 250 g/ha (Avena fatua (AVEFA); [5]) [%]	pest or weed control at 250 g/ha (Avena fatua (AVEFA); [6]) [%]	pest or weed control at 250 g/ha [2, 7] [%]	pest or weed control at 250 g/ha [2, 8] [%]	pest or weed control at 250 g/ha (Lolium perenne (LOLPE); [9]) [%]	pest or weed control at 250 g/ha (Lolium perenne (LOLPE); [10]) [%]
Cc1cc(C)c(C2C(=O)CC(CC(=O)NC(C)(C)C3CC3)C2=O)c(C)c1 (centres unmarked) [Compound B65]	70	80	50	60	70	90	70	80
Cc1ccnc(CNC(=O)CC2CC(=O)C(c3c(C)cc(C)cc3C)C2=O)c1 (centres unmarked) [Compound B66]	90	90	80	0	80	90	90	90
Cc1cc(C)c(C2C(=O)CC(CC(=O)NCc3ncccc3C)C2=O)c(C)c1 (centres unmarked) [Compound B67]	90	90	80	10	80	90	70	90
Cc1cc(C)c(C2C(=O)CC(CC(=O)NCc3cccc(C)n3)C2=O)c(C)c1 (centres unmarked) [Compound B68]	90	80	80	10	70	80	70	80
Cc1cc(C)c(C2C(=O)CC(CC(=O)NCc3ccc(C#N)cc3)C2=O)c(C)c1 (centres unmarked) [Compound B69]	40	50	100	80	80	90	80	90
Cc1cc(-c2ncc(F)cc2F)cc(C)c1C1C(=O)CC(CC(=O)NCc2cccc(F)c2)C1=O (centres unmarked) [Compound B70]	100	80	100	80	100	100	100	90
Cc1cc(-c2ncc(F)cc2F)cc(C)c1C1C(=O)CC(CC(=O)NCc2cc(F)cc(F)c2)C1=O (centres unmarked) [Compound B71]	100	90	100	90	100	100	100	90
Cc1cc(-c2ncc(F)cc2F)cc(C)c1C1C(=O)CC(CC(=O)NCc2ccc(F)cc2)C1=O (centres unmarked) [Compound B72]	100	100	100	70	100	100	100	100
Cc1cc(-c2ncc(F)cc2F)cc(C)c1C1C(=O)CC(CC(=O)NCc2ccc(F)c(F)c2)C1=O (centres unmarked) [Compound B73]	100	90	100	90	100	100	100	90
Cc1cc(-c2ncccc2Cl)cc(C)c1C1C(=O)CC(CC(=O)NC(C)(C)C)C1=O (centres unmarked) [Compound B74]	60	10	60	0	60	10	50	30

From patent US10206394B2, “Herbicidal compounds” (Syngenta Participations AG, priority 2014, dated 2019)
